Experimental data taken from ChEMBL document CHEMBL1156369, “New acetophenone glucosides isolated from extracts of Helichrysum italicum with antiinflammatory activity” (2001).
Active and inactive are the calls of the source. The calls are words filed in the database; no cut-off is given here.

The molecules below were run on Mus musculus (assay: Antiinflammatory activity against TPA-induced ear edema in mouse assessed per ear drug treated topically).
Assay type: functional
C=C(C)C(O)Cc1cc(C(C)=O)ccc1O (stereo not drawn) showed an ID50 of 0.63 µmol.

Each molecule was assayed on Mus musculus (assay: Antiinflammatory activity against TPA-induced ear edema in mouse at 0.5 mg/ear topically).
Assay type: functional
For CC(=O)c1ccc(O)c(CC=C(C)C)c1, the Activity was “inactive”.
For Cc1occc(=O)c1O[C@@H]1O[C@H](CO)[C@@H](O)[C@H](O)[C@H]1O, the Activity was “inactive”.
With C=C(CO[C@@H]1O[C@H](CO)[C@@H](O)[C@H](O)[C@H]1O)[C@@H]1Cc2cc(C(C)=O)ccc2O1 the Activity was “inactive”.
In the case of CC(=O)c1ccc(O[C@@H]2O[C@H](CO)[C@@H](O)[C@H](O)[C@H]2O)c(CC=C(C)C)c1, the Activity is reported as “inactive”.
C=C(C)C(O)Cc1cc(C(C)=O)ccc1O (stereo not drawn) gave an Activity of 68%.
Molecule C=C(CO)[C@@H]1Cc2cc(C(C)=O)ccc2O1 [BITALIN A] has an Activity of 50%.
With CC(=O)c1ccc(O[C@@H]2O[C@H](CO)[C@@H](O)[C@H](O)[C@H]2O)c(CCO)c1 the Activity was “inactive”.
